Experimental data: patent publication US8642516B2, “Chemically-defined arrays for screening cell-substrate interactions” (Wisconsin Alumni Research Foundation, priority 2012, dated 2014)

Legend:
Type in all cases: cell-based, human
HUVEC [1] = experiment: HUVEC spreading (projected cell area) on SAM array spots presenting GRGDSP
Description: For cell assays on SAM arrays, HUVECs or hMSCs were removed from plastic culture plates using a 0.05% trypsin solution, resuspended in media, and seeded onto SAM arrays in sterile polystyrene Petri dishes. After allowing cells to attach for ˜1 hour in a humidified incubator at 37° C. and 5% CO2, arrays were dipped in warm media to remove loosely attached cells and then transferred to a rectangular multidish (Thermo Scientific/Nunc, Rochester, N.Y.) with warm media and imaged ˜4 hours later serving as “0 hr.” For the initial time point and subsequent time-lapse imaging, arrays were placed on an incubated stage and each array spot was imaged every 15 minutes for 72 hours. Furthermore, it is important to point out that all cell experiments for comparison between HUVECs and hMSCs were run simultaneously.
For immunocytochemistry, at 24 and 72 hour time points during the time-lapse experiment, staining for the actin cytoskeleton and focal adhesion markers was performed as directed by the manufacturer (Catalog No. FAK100, Millipore, Billerica, Mass.). […]
Relative cell attachment at 0 hrs was quantified by counting the number of attached cells per spot and normalizing cell numbers to maximal attachment conditions. Normalized cell number was calculated by dividing the number of cells per spot at 72 hours (C72) to the cell number observed on the same spot at 0 hrs (C0). Relative proliferation was determined by dividing normalized cell numbers at 72 hours by the maximum average normalized cell number observed across GRGDSP density conditions. Similarly, relative spreading was determined by dividing projected cell areas to the maximum average projected cell area observed across GRGDSP density conditions. […] For each spot, average cell projected area was calculated by dividing the thresholded actin staining (red channel) by the total number of nuclei in the same spot. […]
Specifically, SAM arrays were prepared as described above. […] Cell spreading was determined by culturing HUVECs and hMSCs for 24 hours and 72 hours and analyzed by cell staining and quantified by measuring projected cell area. […]

hMSC [2] = experiment: hMSC proliferation (normalized cell number C72/C0) on SAM array spots presenting GRGDSP; conditions: hMSCs, 72 hours
Description: (§1) For cell assays on SAM arrays, HUVECs or hMSCs were removed from plastic culture plates using a 0.05% trypsin solution, resuspended in media, and seeded onto SAM arrays in sterile polystyrene Petri dishes. After allowing cells to attach for ˜1 hour in a humidified incubator at 37° C. and 5% CO2, arrays were dipped in warm media to remove loosely attached cells and then transferred to a rectangular multidish (Thermo Scientific/Nunc, Rochester, N.Y.) with warm media and imaged ˜4 hours later serving as “0 hr.” For the initial time point and subsequent time-lapse imaging, arrays were placed on an incubated stage and each array spot was imaged every 15 minutes for 72 hours. […]
(§2) Relative cell attachment at 0 hrs was quantified by counting the number of attached cells per spot and normalizing cell numbers to maximal attachment conditions. Normalized cell number was calculated by dividing the number of cells per spot at 72 hours (C72) to the cell number observed on the same spot at 0 hrs (C0). Relative proliferation was determined by dividing normalized cell numbers at 72 hours by the maximum average normalized cell number observed across GRGDSP density conditions. Similarly, relative spreading was determined by dividing projected cell areas to the maximum average projected cell area observed across GRGDSP density conditions. […]

HUVEC [3] = experiment: HUVEC migration (single cell tracking) on SAM array spots presenting GRGDSP; conditions: HUVECs
Description: as §1, §2

hMSC [4] = experiment: hMSC migration (single cell tracking) on SAM array spots presenting GRGDSP; conditions: hMSCs, each ligand density condition (0.06%-5%)
Description: as §1, §2

HUVEC [5] = experiment: HUVEC proliferation (normalized cell number C72/C0) on SAM array spots presenting GRGDSP; conditions: HUVECs, 72 hours
Description: as §1, §2

HUVEC [6] = experiment: HUVEC proliferation (Click-it EdU) in response to soluble morphogens on SAM arrays; conditions: increased immobilized GRGDSP density
Description: Specifically, SAM array spots presenting mixed ligands were prepared as described above. SAM arrays presenting varied ligand densities of covalently immobilized VEGF receptor-binding peptide ([sequence], here referred to as “VR-BP”; SEQ ID NO:17) and varied ligand densities of the fibronectin-derived cell adhesion peptide (GRGDSP, SEQ ID NO:18) were used to probe for changes in HUVEC attachment, proliferation and tubulogenesis. Control over individual ligand density was achieved by mixing scrambled VR-BP and mutant GRGESP (SEQ ID NO:19) with functional VR-BP or GRGDSP (SEQ ID NO:18) peptides, respectively. Therefore, in a typical SAM array, SAMs were locally formed within spots using an alkanethiolate mixture of 94% HS—C11-EG3-OH and 6% HS—C11-EG6-COOH to create substrates with a total of 6% carboxylate groups for peptide conjugation. Next, to create a spot presenting 5% GRGDSP (SEQ ID NO:18) and 1% VR-BP, a 300 μM peptide solution with 250 μM GRGDSP (SEQ ID NO:18) and 50 μM VR-BP was used during peptide conjugation. Likewise, to create a spot presenting 2.5% GRGDSP (SEQ ID NO:18) and 0.1% VR-BP, a 300 μM peptide solution with 125 μM GRGDSP (SEQ ID NO:18), 125 μM GRGESP (SEQ ID NO:19), 5 μM VR-BP and 45 μM scrambled peptide was used during peptide conjugation. In this manner, the amount of active ligand could be varied between spots while holding the total ligand content constant.
Passage 2 HUVECs were expanded at low cell density (less than 70% confluence) on tissue culture polystyrene to no more than 14 population doublings. During HUVEC expansion, cells were cultured in medium 199 (m199, Mediatech, Manassas, Va.) containing 1% penicillin/streptomycin (Hyclone, Logan, Utah) and supplemented with Clonetics EGM-2 BullitKit (Lonza Walkersville, Inc., Walkersville, Md.) containing Hydrocortisone, hFGF-B, VEGF, R3-IGF-1, Ascorbic Acid, Heparin, FBS, hEGF, GA-1000 growth supplements. […]

In the case of GRGDSP, the “maximal HUVEC spreading (projected cell area)” value (HUVEC [1]; 72 hours, SAM spots with 1.67% and 5% GRGDSP) is reported as 6000 μm^2, the “maximal projected cell area” value (HUVEC [1]; HUVECs, 24 hrs, SAM spots with 1.6% and 5% GRGDSP) is reported as “greater than 4000 μm^2” and the “change in projected cell area from 24 to 72 hrs” value (HUVEC [1]; HUVECs, all GRGDSP densities above 0.06%) is reported as “increasing their projected cell area”. The “maximum normalized cell number (C72/C0)” value (hMSC [2]; across GRGDSP densities) was 6.1, the proliferation (hMSC [2]; below 0.06% GRGDSP) was “no proliferation” and the “fraction of migrating cells” value (HUVEC [3]; high GRGDSP densities) was “virtually no cells migrating”. For the same substance, the “fraction of migrating cells” value (HUVEC [3]; lower GRGDSP densities) was “over 30%”, the “fraction of migrating cells” value (hMSC [4]) was “greater than 37%” and the “maximum normalized cell number (C72/C0)” value (HUVEC [5]; across GRGDSP densities) was 1.6. The proliferation (HUVEC [5]; below 0.06% GRGDSP) was “no proliferation” and the “HUVEC proliferation dependence on ligand density” value (HUVEC [6]) was “increased proliferation”.
